Assay results: patent US10925887B2, “Steroid saponins with anti-cancer activity” (Oncology Research International Limited, priority 2017, dated 2021)

Legend:
Format in all cases: cell-based
MIA PaCa-2 = assay: CellTiter-Blue cell growth inhibition assay, MIA PaCa-2; settings: Homo sapiens, MIA PaCa-2, 48 h
Experimental: (§1) Duplicate experiments were performed using the CellTiter-Blue® Cell Viability Assay to determine IC50 values for Compound A, Compound B and Compound C against each cell line. The general methodology for preparation of test articles described in Example 6 was used. The test compounds compound A, compound C disodium salt and compound B ½ maleate salt were initially formulated as 100× stock solutions at a concentration of 10 mg/mL in the appropriate diluents (DMSO for compounds). These stock solutions were then further diluted in cell culture medium to achieve lower concentrations of 100, 50, 25, 12.5, 6.25 and 3.125, 1.563, 0.781, 0.390 and 0.195 μM of active component. The specific cancer cells were A549, HCT 116, MCF-7 and MIA PaCa-2.
(§2) Human cancer cell types were: HTC-116 (colon); A549 (Lung); HT29 (colon); MCF-7; Mia PaCa-2 (pancreas)
(§3) Cells were seeded in duplicate at 3-4,000 per microtitre well in 50 μl of cell culture medium . After 24 hours, 50 μL of test article or vehicle control prepared in medium at 2× required concentration were added to each well. Cancer cells were allowed to grow in the presence of drug for 48 hours before cell growth relative to untreated control wells was determined with CellTiter-Blue® Cell Viability Assay.
(§4) IC50 values were calculated using Prism 6 for Mac OS X using a nonlinear regression (log(inhibitor) vs. response—Variable slope (four parameters)

MCF-7 = assay: CellTiter-Blue cell growth inhibition assay, MCF-7; settings: Homo sapiens, MCF7, 48 h
Experimental: as §1, §2, §3, §4

HCT 116 = assay: CellTiter-Blue cell growth inhibition assay, HCT 116; settings: Homo sapiens, HCT-116, 48 h
Experimental: as §1, §2, §3, §4

A549 = assay: CellTiter-Blue cell growth inhibition assay, A549; settings: Homo sapiens, A549, 48 h
Experimental: as §1, §2, §3, §4

PC-3 = assay: CellTiter-Blue cell growth inhibition assay, PC-3; settings: Homo sapiens, PC-3, 48 h
[1] = test system: washed human erythrocytes; assay: in vitro haemolysis assay; settings: for HD50 (50% haemolytic dose): washed human erythrocytes, 3 hours at 37° C.
Experimental: Haemolysis is a clinical condition where the red cell membrane is irreversibly damaged causing the release of its haemoglobin content. The in vitro haemolysis assay is a simple test to determine the haemolytic potential of a test substance on isolated and washed red blood cells.
In this example three compounds identified as compound A, compound C disodium salt and compound B ½ maleate salt and Saponin from Quillaja bark (S4521) were tested for haemolytic potential using washed human erythrocytes. The compounds were tested over a dose curve with a maximum concentration of […] and a lowest concentration of […]. The concentration range is […].
Briefly, whole blood (40 mL) was collected from a single human volunteer into multiple EDT vacutainer tubes. The red blood cells (RBC) were washed and isolated from plasma components by three centrifugations at 3000 rpm for 5 minutes in isotonic 0.9% sodium chloride. After the final wash, 0.1 mL volumes of red blood cells were added to each treatment tube.
The test compounds compound A, compound C disodium salt and compound B % maleate salt and the reference article (Saponin S4521) were initially formulated as 100× stock solutions at a concentration of 10 mg/mL in the appropriate diluents (DMSO for compounds, 0.9% NaCl for Saponin S4521). These stock solutions were then further diluted 1:100 in 0.9% NaCl to prepare the highest concentration of […] in 1% DMSO/NaCl. The highest concentration solutions were further diluted serially 1:2 in 1% DMSONaC1 to achieve lower concentrations of 50, 25, 12.5, 6.25, 3.125, 1.562 and 0.781 pg/ml of active component.
The positive control article (hypertonic solution of […]) was formulated by weighing 2.92 g NaCl in 10 mL MilliQ water. The negative control article (isotonic solution of 0.154M NaCl) was formulated on the day of use by dissolving 0.09 g NaCl into 10 mL MilliQ water. The vehicle used to dilute the test articles, 1% DMSO/NaCl, was used as the reagent blank in the assay.
Tubes containing cells and treatments were incubated at 37° C. with gentle agitation in an orbital mixer for 3 hours. At completion of the incubation, tubes were centrifuged at 3000 rpm for 5 minutes and 200 ptL aliquots of supernatant from each tube were transferred to a 96-well microplate for measurement of absorbance at 535 nm. A layout for the 96-Nell microplate is presented in Appendix 1. A 1% DMSO/NaCl vehicle in the absence of blood was used as the reagent blank in the assay.
Mean values for the negative (0.154M NaCl), positive (5M NaCl) and blank triplicate wells were determined. These were then used to calculate the % haemolysis for each sample according to the following formula: […]
Calculations of 50% haemolytic dose (HD50) was performed by non-linear regression analyses using a log(agonist) vs normalized response variable slope curve fit on GraphPad Prism for Mac OS X (Version 5.0c, GraphPad Software, California, USA).

[2] = MIA PaCa-2, Average ± SEM, 48 hours
[3] = MIA PaCa-2, Experiment 1, 48 hours
[4] = MIA PaCa-2, Experiment 2, 48 hours
[5] = HCT 116, Average ± SEM, 48 hours
[6] = HCT 116, Experiment 1, 48 hours
[7] = HCT 116, Experiment 2, 48 hours

Row | SMILES | IC50 (MIA PaCa-2; [2]) [µM] | IC50 (MIA PaCa-2; [3]) [µM] | IC50 (MIA PaCa-2; [4]) [µM] | IC50 (MCF-7; MCF-7, Average ± SEM, 48 hours) [µM] | IC50 (MCF-7; MCF-7, Experiment 1, 48 hours) [µM] | IC50 (MCF-7; MCF-7, Experiment 2, 48 hours) [µM] | IC50 (HCT 116; [5]) [µM] | IC50 (HCT 116; [6]) [µM] | IC50 (HCT 116; [7]) [µM] | IC50 (A549; A549, Average ± SEM, 48 hours) [µM] | IC50 (A549; A549, Experiment 1, 48 hours) [µM] | IC50 (A549; A549, Experiment 2, 48 hours) [µM] | IC50 (PC-3; PC-3, Average ± SEM, 48 hours) [µM] | IC50 (PC-3; PC-3, Experiment 1, 48 hours) [µM] | IC50 (PC-3; PC-3, Experiment 2, 48 hours) [µM] | percent haemolysis ([1]; concentration 0.781 μg/ml) [%] | percent haemolysis ([1]; concentration 1.562 μg/ml) [%] | percent haemolysis ([1]; concentration 3.125 μg/ml) [%] | percent haemolysis ([1]; concentration 6.25 μg/ml) [%] | percent haemolysis ([1]; concentration 12.5 μg/ml) [%] | further results
1 | CC1O[C@@H](OC2C(O)[C@H](O)C(COC(=O)[C@@H](N)C(C)C)O[C@H]2O[C@H]2CC[C@@]3(C)C(=CC[C@H]4[C@@H]5C[C@@H]6O[C@]7(CC[C@@H](C)CO7)[C@@H](C)[C@@H]6[C@@]5(C)CC[C@@H]43)C2)C(O)C(O)[C@H]1O (stereo partly drawn) [Compound B] | 9.39 ± 1.77 | 11.2 | 7.62 | 15 ± 0.32 | 14.7 | 15.3 | 12.4 ± 0.72 | 11.7 | 13.1 | 10.2 ± 0.31 | 9.86 | 10.5 | 11.7 ± 0.7 | 12.4 | 11 | – | – | – | – | – | –
2 | CC1O[C@@H](OC2C(O)[C@H](O)C(COP(=O)([O-])O)O[C@H]2O[C@H]2CC[C@@]3(C)C(=CC[C@H]4[C@@H]5C[C@@H]6O[C@]7(CC[C@@H](C)CO7)[C@@H](C)[C@@H]6[C@@]5(C)CC[C@@H]43)C2)C(O)C(O)[C@H]1O.[Na+] (stereo partly drawn) [Compound C disodium salt] | – | – | – | – | – | – | – | – | – | – | – | – | – | – | – | 1.0 | 1.9 | 0.5 | 1.6 | 0.5 | percent haemolysis ([1]; concentration 25 μg/ml): 1.8%; percent haemolysis ([1]; concentration 50 μg/ml): 2.9%; percent haemolysis ([1]; concentration 100 μg/ml): 51.9%; HD50 (50% haemolytic dose) [1]: 145.70 µg/mL
3 | CC1O[C@@H](OC2C(O)[C@H](O)C(COP(=O)(O)O)O[C@H]2O[C@H]2CC[C@@]3(C)C(=CC[C@H]4[C@@H]5C[C@@H]6O[C@]7(CC[C@@H](C)CO7)[C@@H](C)[C@@H]6[C@@]5(C)CC[C@@H]43)C2)C(O)C(O)[C@H]1O (stereo partly drawn) [Compound C] | 3.04 ± 0.49 | 3.52 | 2.55 | 4.17 ± 1.29 | 5.45 | 2.88 | 3.04 ± 1.05 | 4.08 | 1.99 | 2 ± 0.47 | 2.46 | 1.53 | 3.25 ± 1.07 | 4.32 | 2.18 | – | – | – | – | – | –
4 | CC1O[C@@H](OC2C(O)[C@H](O)C(CO)O[C@H]2O[C@H]2CC[C@@]3(C)C(=CC[C@H]4[C@@H]5C[C@@H]6O[C@]7(CC[C@@H](C)CO7)[C@@H](C)[C@@H]6[C@@]5(C)CC[C@@H]43)C2)C(O)C(O)[C@H]1O (stereo partly drawn) [Compound A, diosgenyl α-L-rhamnopyranosyl-(1→2)-β-D-glucopyranoside, reference compound] | 5.63 ± 0.55 | 6.17 | 5.08 | 7.65 ± 0.27 | 7.91 | 7.38 | 5.1 ± 0.08 | 5.17 | 5.02 | 4.17 ± 0.57 | 4.74 | 3.6 | 6.14 ± 0.29 | 6.42 | 5.85 | −0.3 | 0.5 | −0.1 | 3.2 | 13.4 | percent haemolysis ([1]; concentration 25 μg/ml): 36.0%; percent haemolysis ([1]; concentration 50 μg/ml): 86.7%; percent haemolysis ([1]; concentration 100 μg/ml): 103.2%; HD50 (50% haemolytic dose) [1]: 31.57 µg/mL
